From publication PMC12389534, “Unlocking Therapeutic Potential of Novel Thieno-Oxazepine Hybrids as Multi-Target Inhibitors of AChE/BChE and Evaluation Against Alzheimer’s Disease: In Vivo, In Vitro, Histopathological, and Docking Studies” (Pharmaceuticals, 2025)

Assays:
BACE1 = test: Brain BACE1 level (ELISA); format: in vivo, rat; set-up: reduction of BACE1 levels: concentration or dose not given beside the values; details: AlCl3-induced AD rats; for BACE1 (ng/mL): mean ± SE, n = 6
Description: (§1) The brain tissues of the rats were removed and rigorously washed in isotonic saline 24 h after they were euthanized following the last behavioral test. For histological investigation, four brains per group were preserved for the whole night in 10% neutral buffered formalin. The remaining six brains were split into two sections each. In order to create a 10% homogenate (w/v), the first component was instantaneously homogenized using an ice-cold solution that included 300 mM sucrose and 50 mM Tris-HCl (pH 7.4). The homogenate was centrifuged at 1800× g for 10 min at 4 °C for biochemical tests, and the supernatant was thereafter kept at −20 °C. The second portion was set aside for use in RT-PCR analysis at −80 °C [94]. […]

5-HT = test: Brain 5-HT level (fluorometric); format: in vivo, rat; details: AlCl3-induced AD rats; for 5-HT (ng/g Tissue): brain tissue, mean ± SE, n = 6
Description: (§2) The brain tissues of the rats were removed and rigorously washed in isotonic saline 24 h after they were euthanized following the last behavioral test. For histological investigation, four brains per group were preserved for the whole night in 10% neutral buffered formalin. The remaining six brains were split into two sections each. In order to create a 10% homogenate (w/v), the first component was instantaneously homogenized using an ice-cold solution that included 300 mM sucrose and 50 mM Tris-HCl (pH 7.4). The homogenate was centrifuged at 1800× g for 10 min at 4 °C for biochemical tests, and the supernatant was thereafter kept at −20 °C. The second portion was set aside for use in RT-PCR analysis at −80 °C [94].
(§3) Brain monoamine levels were promptly assessed following the rats’ euthanasia to prevent changes in the substance’s concentration. Dopamine (DA), norepinephrine (NE), and serotonin (5-HT) fluorometric tests were conducted on brain tissue homogenate using the Ciarlone method. […] The concentrations were articulated as nanograms per gram of fresh tissue using the fluorescence of reference solutions [95].

DA = test: Brain DA level (fluorometric); format: in vivo, rat; details: AlCl3-induced AD rats; for DA (ng/g Tissue): brain tissue, mean ± SE, n = 6
Description: as §2, §3

NE = test: Brain NE level (fluorometric); format: in vivo, rat; details: AlCl3-induced AD rats; for NE (nmol/g Tissue): brain tissue, mean ± SE, n = 6
Description: as §2, §3

BDNF = test: Brain BDNF level (ELISA); format: in vivo, rat; details: AlCl3-induced AD rats; for BDNF (ng/mL): brain tissue, mean ± SE, n = 6
Description: as §2
(§4) See Supplementary Information.

AChE = format: in vivo; set-up: reduction in AChE levels: concentration or dose not given beside the values; details: AlCl3-induced AD rats; for AChE (ng/g Tissue): brain tissue, mean ± SE, n = 6; for reduction in AChE levels: brain
TNF-α = test: Brain TNF-α level (ELISA); format: in vivo, rat; details: AlCl3-induced AD rats; for TNF-α (pg/g Tissue): mean ± SE, n = 6
Description: as §1

IL-1β = test: Brain IL-1β level (ELISA); format: in vivo, rat; set-up: reduction in IL-1β levels: concentration or dose not given beside the values; details: AlCl3-induced AD rats; for IL-β (pg/g Tissue): mean ± SE, n = 6
Description: as §1

TLR4 = TLR4 mRNA expression (RT-qPCR); format: in vivo, rat; set-up: reduction of TLR4 mRNA expression: concentration or dose not given beside the values; details: AlCl3-induced AD rats; for TLR4: mRNA expression level, mean ± SE, n = 6
Description: as §2, §4

NFκβ = NFκβ mRNA expression (RT-qPCR); format: in vivo, rat; set-up: reduction of NFκβ mRNA expression: concentration or dose not given beside the values; details: AlCl3-induced AD rats; for NFκβ: mRNA expression level, mean ± SE, n = 6
Description: as §2, §4

NLRP3 = NLRP3 mRNA expression (RT-qPCR); format: in vivo, rat; set-up: reduction of NLRP3 mRNA expression: concentration or dose not given beside the values; details: AlCl3-induced AD rats; for NLRP3: mRNA expression level, mean ± SE, n = 6
Description: as §2, §4

Caspase-1 = Caspase-1 gene expression (RT-qPCR); format: in vivo, rat; set-up: reduction of Caspase-1 levels: concentration or dose not given beside the values; details: AlCl3-induced AD rats; for Caspase-1: gene expression, mean ± SE, n = 6
Description: as §2, §4

BAX = BAX gene expression (RT-qPCR); format: in vivo, rat; details: AlCl3-induced AD rats; for BAX: gene expression, mean ± SE, n = 6
Description: as §2, §4

Bcl-2 = Bcl-2 gene expression (RT-qPCR); format: in vivo, rat; details: AlCl3-induced AD rats; for Bcl-2: gene expression, mean ± SE, n = 6
Description: as §2, §4

Wnt3a = test: Brain Wnt3a level; format: in vivo, rat; details: AlCl3-induced AD rats; for Wnt3a (ng/g Tissue): mean ± SE, n = 6
Description: as §2, §4

GSK3β = GSK3β gene expression (RT-qPCR); format: in vivo, rat; details: AlCl3-induced AD rats; for GSK3β: gene expression, mean ± SE, n = 6
Description: as §2, §4

β-catenin = test: Brain β-catenin level; format: in vivo, rat; details: AlCl3-induced AD rats; for β-Catenin (ng/L): mean ± SE, n = 6
Description: as §2, §4

SOD = test: Brain SOD activity (colorimetric); format: in vivo, rat; details: brain tissue, AlCl3-induced AD rats; mean ± SE, n = 6
Description: as §2
(§5) The SOD enzyme activity was estimated using the Marklund et al. method, which is founded on the enzyme’s capacity to decrease the nitro blue tetrazolium dye at a wavelength of 540 nm. To evaluate the TAC, a colorimetric approach was employed to estimate the amount of hydrogen peroxide that remains after 3,5-dichloro-2-hydroxybenzene sulphonate is converted to a colored product at 660 nm.

TAC = test: Brain TAC (colorimetric); format: in vivo, rat; details: AlCl3-induced AD rats; for TAC (µmol/g Tissue): brain tissue, mean ± SE, n = 6
Description: as §2, §5

MDA = test: Brain MDA content (thiobarbituric acid method); format: in vivo, rat; set-up: reduction in MDA brain content: concentration or dose not given beside the values; details: AlCl3-induced AD rats; for MDA (nmol/g Tissue): brain tissue, mean ± SE, n = 6
Nrf-2 = Nrf-2 mRNA expression (RT-qPCR); format: in vivo, rat; details: AlCl3-induced AD rats; for Nrf-2: mRNA expression in brain tissue, mean ± SE, n = 6
Description: as §2, §4

HO-1 = HO-1 mRNA expression (RT-qPCR); format: in vivo, rat; details: AlCl3-induced AD rats; for HO-1: mRNA expression in brain tissue, mean ± SE, n = 6
Description: as §2, §4

BChE = molecular target: T1, BChE (Homo sapiens, UniProt P06276); test: biochemical; details: for IC50: fluorescence kit, triplicate; for Selectivity Index BChE/AChE: ratio of IC50 BChE to IC50 AChE, <1 = preferential BChE inhibition
T1 construct: purchased Invitrogen EIABCHEF
T1 sequence (P06276 29-602): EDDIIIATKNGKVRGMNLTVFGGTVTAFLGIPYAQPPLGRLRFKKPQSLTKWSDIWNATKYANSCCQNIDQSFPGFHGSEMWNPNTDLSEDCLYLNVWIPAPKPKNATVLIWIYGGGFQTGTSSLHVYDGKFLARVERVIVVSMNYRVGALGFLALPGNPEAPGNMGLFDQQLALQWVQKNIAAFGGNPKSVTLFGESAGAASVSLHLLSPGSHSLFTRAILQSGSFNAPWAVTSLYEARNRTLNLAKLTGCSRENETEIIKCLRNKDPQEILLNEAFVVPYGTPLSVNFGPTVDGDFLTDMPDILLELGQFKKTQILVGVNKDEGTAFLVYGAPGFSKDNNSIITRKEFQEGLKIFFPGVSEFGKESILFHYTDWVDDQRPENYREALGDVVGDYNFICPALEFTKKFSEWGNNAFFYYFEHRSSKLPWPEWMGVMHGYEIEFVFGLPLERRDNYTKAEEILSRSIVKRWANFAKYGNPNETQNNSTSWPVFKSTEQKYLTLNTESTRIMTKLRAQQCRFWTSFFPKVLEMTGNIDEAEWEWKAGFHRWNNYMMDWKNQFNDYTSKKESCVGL
Description: Using an Invitrogen BChE test kit (Catalog #EIABCHEF), the assay was performed in compliance with the supplier’s instructions. The study was conducted using black 96-well plates. […] Each well was then filled with 50 μL of the reaction mixture, which consisted of fluorescence detection reagent and butyrylthiocholine iodide in assay buffer. The plate was then left to incubate for 20 min at room temperature. Finally, excitation at 390 nm was used to observe emission at 510 nm using a microplate reader. Background fluorescence was further eliminated for each data point.

BAX/Bcl-2 = BAX/Bcl-2 ratio of gene expression; format: in vivo, rat; details: AlCl3-induced AD rats
Description: as §2, §4

O=C1CN(c2ccc(O)cc2)C(=O)c2c(sc3c2CCCCC3)O1 [Compound 15, 4-(4-Hydroxyphenyl)-3,4,7,8,9,10-hexahydro-6H-cyclohepta[4,5]thieno[3,2-f][1,4]oxa-zepine-2,5-dione]
reduction of BACE1 levels (BACE1): 64.6%
BACE1 (ng/mL) (BACE1): 10.50 ± 0.2 ^abc ng/mL
elevation of 5-HT levels (5-HT): 3.7 fold
5-HT (ng/g Tissue) (5-HT): 6.77 ± 0.22 ^abc ng/g Tissue
elevation of DA levels (DA): 3.8 fold
DA (ng/g Tissue) (DA): 44.92 ± 2.85 ^abc ng/g Tissue
rise in the level of NE (NE): 2.7 times
NE (nmol/g Tissue) (NE): 499.8 ± 2.85 ^abc nmol/g Tissue
elevation of BDNF levels (BDNF): 2.2 fold
BDNF (ng/mL) (BDNF): 94.48 ± 0.05 ^abc ng/mL
AChE (ng/g Tissue) (AChE): 25.73 ± 0.37 ^abc ng/g Tissue
reduction in AChE levels (AChE): 61.8%
decline in TNF-α levels (TNF-α): 74.6%
TNF-α (pg/g Tissue) (TNF-α): 44.6 ± 0.6 ^abc pg/g Tissue
reduction in IL-1β levels (IL-1β): 61.1%
IL-β (pg/g Tissue) (IL-1β): 45.66 ± 1.03 ^abc pg/g Tissue
reduction of TLR4 mRNA expression (TLR4): 52.5%
TLR4 (TLR4): 4.57 ± 0.09 ^abc
reduction of NFκβ mRNA expression (NFκβ): 64.8%
NFκβ (NFκβ): 2.98 ± 0.10 ^abc
reduction of NLRP3 mRNA expression (NLRP3): 68.5%
NLRP3 (NLRP3): 3.36 ± 0.12 ^abc
reduction of Caspase-1 levels (Caspase-1): 69.1%
Caspase-1 (Caspase-1): 2.94 ± 0.110 ^abc
BAX (BAX): 4.47 ± 0.040 ^abc
upregulation of Bcl-2 gene expression (Bcl-2): 7.1 fold
Bcl-2 (Bcl-2): 0.86 ± 0.020 ^abc
elevation of Wnt3a levels (Wnt3a): 7.3 fold
Wnt3a (ng/g Tissue) (Wnt3a): 0.88 ± 0.01 ^abc ng/g Tissue
reduction of GSK3β gene expression (GSK3β): 53.7%
GSK3β (GSK3β): 4.72 ± 0.05 ^abc
elevation of β-catenin levels (β-catenin): 8.8 fold
β-Catenin (ng/L) (β-catenin): 13.86 ± 0.11 ^abc ng/L
SOD(U/g) (SOD): 2.56 ± 0.54 ^abc U/g
improvement of TAC levels (TAC): ~3.3 times
TAC (µmol/g Tissue) (TAC): 31.67 ± 0.42 ^abc µmol/g Tissue
reduction in MDA brain content (MDA): 45.2%
MDA (nmol/g Tissue) (MDA): 63.68 ± 0.12 ^abc nmol/g Tissue
elevation of Nrf-2 mRNA expression (Nrf-2): 5.1 fold
Nrf-2 (Nrf-2): 0.82 ± 0.020 ^abc
elevation of HO-1 mRNA expression (HO-1): 6.7 fold
HO-1 (HO-1): 0.82 ± 0.005 ^abc
IC50 (BChE): 0.7 ± 0.02 µM
Selectivity Index BChE/AChE (BChE): 0.44
BAX/Bcl-2 Ratio (BAX/Bcl-2): 5.20

COc1ccc(N2CC(=O)Oc3sc4c(c3C2=O)CCCCC4)cc1 [Compound 16, 4-(4-Methoxyphenyl)-3,4,7,8,9,10-hexahydro-6H-cyclohepta[4,5]thieno[3,2-f][1,4]oxa-zepine-2,5-dione]
BACE1 (ng/mL) (BACE1): 17.44 ± 0.23 ^abc ng/mL
elevation of 5-HT levels (5-HT): 5.9 fold
5-HT (ng/g Tissue) (5-HT): 10.65 ± 0.71 ^abc ng/g Tissue
elevation of DA levels (DA): 4.4 fold
DA (ng/g Tissue) (DA): 52.96 ± 1.52 ^abc ng/g Tissue
rise in the level of NE (NE): 2 times
NE (nmol/g Tissue) (NE): 366.4 ± 1.52 ^abc nmol/g Tissue
elevation of BDNF levels (BDNF): 3.1 fold
BDNF (ng/mL) (BDNF): 134.8 ± 0.01 ^abc ng/mL
AChE (ng/g Tissue) (AChE): 16.83 ± 0.29 ^abc ng/g Tissue
reduction in AChE levels (AChE): 75%
decline in TNF-α levels (TNF-α): 51.6%
TNF-α (pg/g Tissue) (TNF-α): 85.17 ± 0.46 ^abc pg/g Tissue
reduction in IL-1β levels (IL-1β): 55.2%
IL-β (pg/g Tissue) (IL-1β): 53.04 ± 0.61 ^abc pg/g Tissue
reduction of TLR4 mRNA expression (TLR4): 53.9%
TLR4 (TLR4): 4.43 ± 0.08 ^abc
reduction of NFκβ mRNA expression (NFκβ): 44.5%
NFκβ (NFκβ): 4.70 ± 0.12 ^abc
reduction of NLRP3 mRNA expression (NLRP3): 59.5%
NLRP3 (NLRP3): 4.32 ± 0.10 ^abc
reduction of Caspase-1 levels (Caspase-1): 47%
Caspase-1 (Caspase-1): 5.04 ± 0.130 ^abc
suppression of BAX gene expression (BAX): 36.5%
BAX (BAX): 6.14 ± 0.090 ^abc
upregulation of Bcl-2 gene expression (Bcl-2): 5.2 fold
Bcl-2 (Bcl-2): 0.63 ± 0.020 ^abc
elevation of Wnt3a levels (Wnt3a): 5.5 fold
Wnt3a (ng/g Tissue) (Wnt3a): 0.52 ± 0.01 ^abc ng/g Tissue
GSK3β (GSK3β): 2.18 ± 0.10 ^abc
elevation of β-catenin levels (β-catenin): 4.6 fold
β-Catenin (ng/L) (β-catenin): 7.34 ± 0.12 ^abc ng/L
SOD(U/g) (SOD): 2.92 ± 0.20 ^abc U/g
improvement of TAC levels (TAC): 4.4 times
TAC (µmol/g Tissue) (TAC): 42.42 ± 0.84 ^abc µmol/g Tissue
reduction in MDA brain content (MDA): 72.8%
MDA (nmol/g Tissue) (MDA): 31.63 ± 0.05 ^abc nmol/g Tissue
elevation of Nrf-2 mRNA expression (Nrf-2): 2.9 fold
Nrf-2 (Nrf-2): 0.47 ± 0.005 ^abc
elevation of HO-1 mRNA expression (HO-1): 4.1 fold
HO-1 (HO-1): 0.50 ± 0.020 ^abc
IC50 (BChE): 5.23 ± 0.18 µM
Selectivity Index BChE/AChE (BChE): 6.89
BAX/Bcl-2 Ratio (BAX/Bcl-2): 9.75
